Data reported in PMC6222891, “Bioinspired Honokiol Analogs and Their Evaluation for Activity on the Norepinephrine Transporter” (Molecules : A Journal of Synthetic Chemistry and Natural …, 2018).

Target: T1, human norepinephrine transporter (hNET) (Homo sapiens, UniProt P23975)
T1 construct: expressed in transfected cells
Experiment: fluorescent neurotransmitter transporter uptake assay (plate reader)
Format: cell-based
Conditions: HEK-hNET-hVMAT2-mCherry cells; compounds selected for follow-up assays
Procedure: Cell line: All screening was done in a line of human embryonic kidney cells stably expressing the human norepinephrine transporter and the vesicular monoamine transporter 2 (HEK-hNET- -hVMAT2-mCherry). Human VMAT2 expression, in addition to hNET, more fully recapitulates a neuronal phenotype in cell culture. Cells were imaged and fully characterized for functionality (Figure 1). […] Screening: Synthesized compounds were tested for interaction with NET via a three-step process. First, all compounds were tested using a commercially available fluorescent assay (neurotransmitter transport uptake kit, Molecular Devices, San Jose, CA, USA) for the assessment of plasmalemmal monoamine transport ability. Cells were plated in poly-D-lysine (PDL)-coated 96-well plates (Corning Inc., Corning, NY, USA) to 100% confluence. The following day, cell media (DMEM, 10% fetal bovine serum, 1% penicillin/streptomycin) was removed, and experimental media (Hank’s balanced salt solution, Sigma-Aldrich) was added. […] Plates were incubated for 1 h, then read on a fluorescent plate reader (Thermo Fisher). Experiments were conducted in triplicate. […] Cells were plated to confluence in 48-well PDL-coated plates the day prior to the experiment. For experiments, media was removed, cells were rinsed with phosphate buffered saline (PBS), and incubated with or without compounds or desipramine (10 nM to 10 μM, non-specific uptake measured by addition of 100 μM desipramine) for ten minutes at 37 °C. Dopamine (1 μM total concentration with 200 nM ^3H-dopamine tracer) was added and uptake proceeded for 10 min at 37 °C. Cells were then rinsed three times with PBS, lysed with 0.1 N NaOH, and measured via liquid scintillation counting (Beckman Coulter, Brea, CA, USA). Finally, each selected compound was visualized with high-content imaging using the Array Scan VTI HCS (Cellomics). Cells were seeded to 80% confluence in PDL-coated, glass-bottom 96-well plates. Media was removed and DMEM without phenol red with or without compounds or desipramine (10 nM to 10 μM) was added. Following a one-hour incubation, cells were imaged. Forty-nine contiguous fields per well were taken and total fluorescence in the green channel was reported.
Figure 1 Plate reader-based fluorescent assay using human NET in a validation assay of the scree-ning strategy using the known NET inhibitor desipramine as a positive control. […] (C) Finally, uptake was visualized using high content imaging with the Array Scan VTI HCS (Cellomics, Thermo Fisher Scientific, Waltham, MA, USA) to visualize nuclei (stained with DAPI), VMAT2-mCherry, and dye. All experiments were conducted in triplicate and analyzed with nonlinear regression analysis in GraphPad Prism (GraphPad Software, La Jolla, CA, USA). Scale: […].

T1 sequence (P23975 whole entry): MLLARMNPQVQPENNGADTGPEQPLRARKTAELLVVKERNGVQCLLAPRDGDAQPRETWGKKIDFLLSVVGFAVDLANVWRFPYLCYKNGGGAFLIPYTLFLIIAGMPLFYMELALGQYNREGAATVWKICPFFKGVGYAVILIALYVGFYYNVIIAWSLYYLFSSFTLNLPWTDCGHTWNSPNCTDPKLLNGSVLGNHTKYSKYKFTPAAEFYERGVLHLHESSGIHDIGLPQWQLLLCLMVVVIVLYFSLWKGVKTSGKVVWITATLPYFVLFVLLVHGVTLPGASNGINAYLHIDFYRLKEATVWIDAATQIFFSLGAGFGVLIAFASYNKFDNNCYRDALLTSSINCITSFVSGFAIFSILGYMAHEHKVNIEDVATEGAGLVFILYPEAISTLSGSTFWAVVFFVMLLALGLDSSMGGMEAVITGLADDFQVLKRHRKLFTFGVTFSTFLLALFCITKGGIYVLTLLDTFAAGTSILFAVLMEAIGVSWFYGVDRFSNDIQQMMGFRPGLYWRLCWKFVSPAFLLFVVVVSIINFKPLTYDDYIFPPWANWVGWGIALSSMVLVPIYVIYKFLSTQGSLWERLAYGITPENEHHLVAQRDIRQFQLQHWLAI

Row | Structure (SMILES) | modulation of transport activity in the fluorescent screen (ranking)
1 | C=CCc1cc(Cc2cccc(CC=C)c2OC)ccc1OC [Compound C4a, 3,3′-Diallyl-2,4′-dimethoxy-diphenyl-methan] | most potent modulators of transport activity
2 | C=CCc1cc(NC(C)=O)c(O)c(-c2ccc(OC)c(CC=C)c2)c1 [Compound H8] | most potent modulators of transport activity
3 | C=CCc1ccc(O)c(-c2ccc(OC)c(CC=C)c2)c1 [Compound H11, 4′-O-methylhonokiol] | most potent modulators of transport activity
4 | C=CCc1ccc(OC)c(-c2ccc(OC)c(CC=C)c2)c1 [Compound H16] | most potent modulators of transport activity
5 | CCCc1ccc(OC)c(-c2ccc(OC)c(CCC)c2)c1 [Compound H20] | most potent modulators of transport activity
6 | CC(C)(C)c1ccc(O)c(-c2cc(C(C)(C)C)ccc2O)c1 [Compound M6] | most potent modulators of transport activity
